Experimental data published in ChEMBL document CHEMBL6103654, “Design, Biological Characterization, and Discovery of Capromorelin Derivatives as Oral Growth Hormone Secretagogue Receptor Type 1a Agonist for the Treatment of Growth Hormone Deficiency” (J Med Chem, 2025).
Calls of active or inactive are those of the source. No cut-off for these calls is given here.

How the values were obtained:
[1] = tested on: Rattus norvegicus; experiment: Induction of growth hormone level in 4 week-old female Sprague-Dawley rat assessed as increase in body weight at 2.5 mg/kg, po measured after 10 days; type: functional, organism-based; conditions: time 10.0 day
[2] = biological target: Cytochrome P450 2D6 (Homo sapiens, UniProt P10635); experiment: Inhibition of CYP2D6 in human liver microsome incubated for 5 min in presence of NADPH by UPLC-MS/MS analysis; type: ADME, microsomes
[3] = tested on: Rattus norvegicus; experiment: Induction of growth hormone level in adult Sprague-Dawley rat blood at 0.5 mg/kg, po administered as single dose measured after 10 mins by ELISA method (reference value: 13.7+/-7.2 ng/mL); type: functional
[4] = Half life in male monkey at 0.5 mg/kg, iv administered as single dose measured after 4 hrs; type: ADME, organism-based, Macaca mulatta; conditions: rhesus monkey, in vivo
[5] = tested on: Rattus norvegicus; experiment: Induction of growth hormone level in Juvenile Sprague-Dawley rat blood at 0.5 mg/kg, po administered as single dose measured after 10 mins by ELISA method (reference value: 23.2+/-5.6 ng/mL); type: functional
[6] = Cmax in male monkey at 2 mg/kg, po administered as single dose measured after 4 hrs; type: ADME, organism-based, Macaca mulatta; conditions: rhesus monkey, in vivo
[7] = tested on: Rattus norvegicus; experiment: Induction of growth hormone level in adult Sprague-Dawley rat blood by measuring AUC(0 to 40 mins) at 0.5 mg/kg, po administered as single dose by ELISA method (reference value: 7.0+/-1.7 ng/mL); type: functional, organism-based
[8] = Clearance in male dog plasma at 0.5 mg/kg, iv administered as single dose measured after 4 hrs; type: ADME, organism-based, Canis lupus familiaris
[9] = tested on: Rattus norvegicus; experiment: Induction of growth hormone level in 6 week-old female Sprague-Dawley rat assessed as increase in body length at 2.5 mg/kg, po measured after 10 days; type: functional, organism-based; conditions: time 10.0 day
[10] = tested on: Rattus norvegicus; experiment: Induction of growth hormone level in Juvenile Sprague-Dawley rat blood by measuring AUC(0 to 40 mins) at 0.5 mg/kg, po administered as single dose by ELISA method (reference value: 20.2+/-4.3 ng/mL); type: functional, organism-based
[11] = AUC in male monkey at 2 mg/kg, po administered as single dose measured after 4 hrs; type: ADME, organism-based, Macaca mulatta; conditions: rhesus monkey, in vivo
[12] = Toxicity in Sprague-Dawley rat assessed as effect on red pulp with a network of sinuses filled with erythrocytes at 10 to 100 mg/kg, po administered once daily for 14 days by H&E staining based analysis; type: organism-based; conditions: in vivo, 336 h, dose 10-100 mg/kg, time 14 day
[13] = tested on: Rattus norvegicus; experiment: Induction of growth hormone level in 4 week-old male Sprague-Dawley rat assessed as increase in body weight at 2.5 mg/kg, po measured after 10 days; type: functional, organism-based; conditions: time 10.0 day
[14] = Agonist activity at human GHSR expressed in CHO cells incubated for 60 min by FLIPR assay; type: cell-based; conditions: 1 h
[15] = Metabolic stability in dog liver microsome assessed as half life at 1 uM measured upto 60 mins in presence of NADPH by LC-MS/MS analysis; type: ADME, Canis lupus familiaris; conditions: liver microsomes
[16] = Tmax in male mouse at 2 mg/kg, po administered as single dose measured after 4 hrs; type: ADME, organism-based; conditions: in vivo
[17] = tested on: Rattus norvegicus; experiment: Induction of growth hormone level in 6 week-old male Sprague-Dawley rat assessed as increase in body weight at 2.5 mg/kg, po measured after 10 days; type: functional, organism-based; conditions: time 10.0 day
[18] = Genotoxicity in Salmonella typhimurium TA1535 by Ames test; type: toxicity; conditions: salmonella enterica subsp. enterica serovar typhimurium
[19] = Half life in male mouse at 1 mg/kg, iv administered as single dose measured after 4 hrs; type: ADME, organism-based; conditions: in vivo
[20] = Plasma protein binding in mouse assessed as unbound fraction measured after 6 hrs by dialysis method; type: ADME, cell-free
[21] = Clearance in male Sprague-Dawley rat plasma at 1 mg/kg, iv administered as single dose measured after 4 hrs; type: ADME, organism-based
[22] = Metabolic stability in rat liver microsome assessed as intrinsic clearance at 1 uM measured upto 60 mins in presence of NADPH by LC-MS/MS analysis; type: ADME; conditions: liver microsomes, read-out: CLH
[23] = biological target: Growth hormone secretagogue receptor type 1 (Rattus norvegicus) (UniProt O08725); experiment: Agonist activity at rat GHSR expressed in CHO cells at maximum concentration incubated for 60 min by FLIPR assay relative to control; type: functional, cell-based; conditions: filed as agonist
[24] = Half life in male mouse at 2 mg/kg, po administered as single dose measured after 4 hrs; type: ADME, organism-based; conditions: in vivo
[25] = Toxicity in Sprague-Dawley rat liver assessed as change in central veins at 10 to 100 mg/kg, po administered once daily for 14 days; type: organism-based; conditions: in vivo, 336 h, dose 10-100 mg/kg, time 14 day
[26] = biological target: Cytochrome P450 3A4 (Homo sapiens, UniProt P08684); experiment: Inhibition of CYP3A4 in human liver microsome using midazolam as substrate incubated for 5 min in presence of NADPH by UPLC-MS/MS analysis; type: ADME, microsomes
[27] = species: Rattus norvegicus; experiment: Induction of growth hormone level in 4 week-old Sprague-Dawley rat assessed as increase in body length measured after 10 days; type: functional, organism-based; conditions: time 10.0 day
[28] = tested on: Rattus norvegicus; experiment: Induction of growth hormone level in Juvenile Sprague-Dawley rat blood by measuring AUC(0 to 40 mins) at 0.1 mg/kg, po administered as single dose by ELISA method (reference value: 20.2+/-4.3 ng/mL); type: functional, organism-based; conditions: time 4.0 hrs
[29] = species: Rattus norvegicus; experiment: Induction of growth hormone level in 6 week-old Sprague-Dawley rat assessed as increase in body length measured after 10 days; type: functional, organism-based; conditions: time 10.0 day
[30] = Agonist activity at dog GHSR expressed in CHO cells incubated for 60 min by FLIPR assay; type: cell-based; conditions: 1 h
[31] = tested on: Rattus norvegicus; experiment: Induction of growth hormone level in adult Sprague-Dawley rat blood at 0.5 mg/kg, po administered as single dose measured after 20 mins by ELISA method (reference value: 4.9+/-1.1 ng/mL); type: functional
[32] = tested on: Rattus norvegicus; experiment: Induction of growth hormone level in Juvenile Sprague-Dawley rat blood at 0.5 mg/kg, po administered as single dose measured after 20 mins by ELISA method (reference value: 29.1+/-8.6 ng/mL); type: functional
[33] = Half life in male dog at 0.5 mg/kg, iv administered as single dose measured after 4 hrs; type: ADME, organism-based, Canis lupus familiaris; conditions: in vivo
[34] = tested on: Rattus norvegicus; experiment: Induction of growth hormone level in Juvenile Sprague-Dawley rat blood at 0.2 mg/kg, po administered as single dose measured after 2 hrs by ELISA method (reference value: 26.5+/-7.3 ng/mL); type: functional
[35] = tested on: Rattus norvegicus; experiment: Induction of growth hormone level in Juvenile Sprague-Dawley rat blood at 0.1 mg/kg, po administered as single dose measured after 4 hrs by ELISA method (reference value: 32.5+/-4.5 ng/mL); type: functional
[36] = tested on: Rattus norvegicus; experiment: Induction of growth hormone level in 4 week-old female Sprague-Dawley rat assessed as increase in body length at 2.5 mg/kg, po measured after 10 days; type: functional, organism-based; conditions: time 10.0 day
[37] = Half life in male dog at 2 mg/kg, po administered as single dose measured after 4 hrs; type: ADME, organism-based, Canis lupus familiaris; conditions: in vivo
[38] = tested on: Rattus norvegicus; experiment: Induction of growth hormone level in adult Sprague-Dawley rat blood at 0.2 mg/kg, po administered as single dose measured after 40 mins by ELISA method (reference value: 14.4+/-6.9 ng/mL); type: functional
[39] = AUC in male dog at 2 mg/kg, po administered as single dose measured after 4 hrs; type: ADME, organism-based, Canis lupus familiaris; conditions: in vivo

Sequence of Cytochrome P450 2D6 (P10635 whole entry): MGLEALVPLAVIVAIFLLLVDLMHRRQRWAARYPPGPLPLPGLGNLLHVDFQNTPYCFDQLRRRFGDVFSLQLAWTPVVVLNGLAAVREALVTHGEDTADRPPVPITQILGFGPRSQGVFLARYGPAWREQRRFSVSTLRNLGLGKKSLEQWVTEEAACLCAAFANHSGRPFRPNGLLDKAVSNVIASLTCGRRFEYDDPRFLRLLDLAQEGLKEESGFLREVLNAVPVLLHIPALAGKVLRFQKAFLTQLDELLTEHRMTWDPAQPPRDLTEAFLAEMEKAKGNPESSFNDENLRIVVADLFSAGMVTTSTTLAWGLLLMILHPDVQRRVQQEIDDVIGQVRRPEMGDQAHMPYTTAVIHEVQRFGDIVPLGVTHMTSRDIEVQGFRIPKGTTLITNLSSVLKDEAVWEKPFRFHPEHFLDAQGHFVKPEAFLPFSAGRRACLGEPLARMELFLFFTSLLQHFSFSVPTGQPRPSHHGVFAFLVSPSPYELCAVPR
Sequence of Growth hormone secretagogue receptor type 1 (Rattus norvegicus) (O08725 whole entry): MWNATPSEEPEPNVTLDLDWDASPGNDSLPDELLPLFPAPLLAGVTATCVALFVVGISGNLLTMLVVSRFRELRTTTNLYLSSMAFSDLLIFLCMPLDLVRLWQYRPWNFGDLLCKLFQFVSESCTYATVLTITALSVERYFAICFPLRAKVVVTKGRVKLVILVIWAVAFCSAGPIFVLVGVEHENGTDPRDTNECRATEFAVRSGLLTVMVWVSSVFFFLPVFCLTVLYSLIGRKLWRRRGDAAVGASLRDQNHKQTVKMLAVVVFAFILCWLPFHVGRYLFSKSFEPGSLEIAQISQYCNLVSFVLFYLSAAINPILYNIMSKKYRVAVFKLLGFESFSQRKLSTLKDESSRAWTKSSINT
Sequence of Cytochrome P450 3A4 (P08684 whole entry): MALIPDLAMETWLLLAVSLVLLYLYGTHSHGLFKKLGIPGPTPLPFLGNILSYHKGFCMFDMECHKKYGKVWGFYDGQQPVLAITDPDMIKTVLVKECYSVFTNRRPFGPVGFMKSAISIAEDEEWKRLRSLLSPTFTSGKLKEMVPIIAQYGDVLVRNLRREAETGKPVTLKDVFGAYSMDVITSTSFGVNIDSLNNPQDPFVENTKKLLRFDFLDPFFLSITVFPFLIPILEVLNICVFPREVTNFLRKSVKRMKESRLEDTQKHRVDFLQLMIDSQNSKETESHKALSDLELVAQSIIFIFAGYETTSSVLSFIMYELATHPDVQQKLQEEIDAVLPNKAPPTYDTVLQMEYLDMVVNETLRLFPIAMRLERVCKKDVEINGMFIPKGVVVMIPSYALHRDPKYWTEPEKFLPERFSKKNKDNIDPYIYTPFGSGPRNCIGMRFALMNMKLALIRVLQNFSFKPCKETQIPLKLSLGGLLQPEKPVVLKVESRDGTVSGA

IC50 [2]: > 30000 nM
half-life [4]: 46.8 min
Cmax [6]: 43.4 ng/mL
clearance [8]: 35 mL/min/kg
AUC [11]: 75.13 ng·h/mL
EC50 [14]: 0.55 nM
half-life at 1 µM [15]: 10.3 min
Tmax [16]: 15 min
half-life [19]: 16.2 min
fraction unbound at 6 h [20]: 0.621
clearance [21]: 28.9 mL/min/kg
microsomal CLint at 1 µM [22]: 140 µL/min/mg
Activity [23]: 96.7%
half-life [24]: 91.2 min
IC50 [26]: > 30000 nM
EC50 [30]: 0.043 nM
half-life [33]: 56.4 min
half-life [37]: 71.4 min
AUC at 4 h [39]: 406 ng·h/mL
Structure (SMILES): CC(C)(N)C(=O)N[C@H](COCc1ccccc1)C(=O)N1CCC2=NN(C3CC3)C(=O)[C@]2(Cc2ccccc2)C1
Activity [1]: Active
Activity [3]: 238.6 ng/mL
Activity [5]: 230.9 ng/mL
AUC [7]: 62.8 ng·h/mL
Activity [9]: Active
AUC [10]: 110 ng·h/mL
Activity [12]: Non-toxic
Activity [13]: Active
Activity [17]: Active
Activity [18]: Non-toxic
Activity [25]: Non-toxic
Activity [27]: Dose-dependent-effect
AUC [28]: 109 ng·h/mL
Activity [29]: Dose-dependent-effect
Activity [31]: 68.8 ng/mL
Activity [32]: 223.2 ng/mL
Activity [34]: 32.3 ng/mL
Activity [35]: 41.4 ng/mL
Activity [36]: Active
Activity [38]: 26 ng/mL
